Here are results for 20 compounds from publication PMC5071162 (ACS chemical neuroscience, 2016).

A word on the EC50: it is the concentration that produces a half-maximal response. Read a low EC50 as an effect from little substance.

The assay addresses human GPR88 (Homo sapiens, UniProt Q9GZN0). Description: Lance cAMP assay using stable PPLS-HA-GPR88 CHO cells. Conditions: for agonist activity in words: qualitative SAR statement, Lance cAMP assay. The class given is cell-based. (In general: Cyclic AMP is a second messenger, typically raised through Gs and lowered through Gi signalling.)

Sequence of human GPR88 (Q9GZN0 whole entry): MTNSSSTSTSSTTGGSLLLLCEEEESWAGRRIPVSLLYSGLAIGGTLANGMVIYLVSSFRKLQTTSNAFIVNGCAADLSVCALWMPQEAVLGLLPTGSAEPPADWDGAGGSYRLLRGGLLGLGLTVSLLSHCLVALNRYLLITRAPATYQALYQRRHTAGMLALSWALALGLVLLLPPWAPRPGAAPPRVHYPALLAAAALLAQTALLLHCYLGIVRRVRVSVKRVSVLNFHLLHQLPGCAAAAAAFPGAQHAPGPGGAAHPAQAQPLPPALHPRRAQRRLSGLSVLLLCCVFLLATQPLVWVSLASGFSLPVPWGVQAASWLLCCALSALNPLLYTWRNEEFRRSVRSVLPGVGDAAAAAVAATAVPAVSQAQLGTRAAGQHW

Turning to `CC[C@H](C)[C@H](N)CN(C(=O)[C@@H]1C[C@H]1c1ccccn1)c1ccc(-c2ccc(C(C)(C)C)cc2)cc1` (relative stereo) [5f, (1R*,2R*)-2-(Pyridin-2-yl)cyclopropanecarboxylic Acid [(2S,3S)-2-Amino-3-methylpentyl]-(4′-tert-butylbiphenyl-4-yl)amide], a half-maximal response (EC50) (EC50) required 515 nM.

`CC[C@H](C)[C@H](N)CN(C(=O)[C@@H]1C[C@H]1c1ccccn1)c1ccc(-c2ccc(-c3ccccc3)cc2)cc1` (relative stereo) [5i, (1R*,2R*)-2-(Pyridin-2-yl)cyclopropanecarboxylic Acid [(2S,3S)-2-Amino-3-methylpentyl]-(4′-phenylbiphenyl-4-yl)amide] had an EC50 (EC50) of 289 nM.

In turn, `CC[C@H](C)[C@H](N)CN(C(=O)[C@@H]1C[C@H]1c1ccccn1)c1ccc(-c2ccc3c(c2)OCO3)cc1` (relative stereo) [5o, (1R*,2R*)-2-(Pyridin-2-yl)cyclopropanecarboxylic Acid [(2S,3S)-2-Amino-3-methylpentyl]-(3′,4′-methylenedioxybiphenyl-4-yl)amide] showed an EC50 (EC50) of 204 nM and an EC50 (EC50 (nM)) of 204 nM.

Regarding `CC[C@H](C)[C@H](N)CN(C(=O)[C@@H]1C[C@H]1c1ccccn1)c1ccc(-c2ccc(O)cc2)cc1` (relative stereo) [5v, (1R*,2R*)-2-(Pyridin-2-yl)cyclopropanecarboxylic Acid [(2S,3S)-2-Amino-3-methylpentyl]-(4′-hydroxybiphenyl-4-yl)amide], the “agonist activity in words” value is reported as “significant decrease in activity”. The compound further gave an EC50 (EC50) of 2860 nM.

As for “(1R*,2R*)-2-(Pyridin-2-yl)cyclopropanecarboxylic Acid [(2S,3S)-2-Amino-3-methylpentyl]-(4′-benzylphenyl-4-yl)amide [4f]”, the “agonist activity in words” value was “deteriorated activity”.

For the setting “EC50”, `CC[C@H](C)[C@H](N)CN(C(=O)[C@@H]1C[C@H]1c1ccccn1)c1ccc(-c2ccc(CC(C)C)cc2)cc1` (relative stereo) [5e, (1R*,2R*)-2-(Pyridin-2-yl)cyclopropanecarboxylic Acid [(2S,3S)-2-Amino-3-methylpentyl]-(4′-isobutylbiphenyl-4-yl)amide] had an EC50 of 271 nM.

In turn, `CC[C@H](C)[C@H](N)CN(C(=O)[C@@H]1C[C@H]1c1ccccn1)c1ccc(-c2ccc(C(C)=O)cc2)cc1` (relative stereo) [5t, (1R*,2R*)-2-(Pyridin-2-yl)cyclopropanecarboxylic Acid [(2S,3S)-2-Amino-3-methylpentyl]-(4′-acetylbiphenyl-4-yl)amide] had an EC50 (EC50) of 351 nM.

With `CC[C@H](C)[C@H](N)CN(C(=O)[C@@H]1C[C@H]1c1ccccn1)c1ccc(-c2ccc(NC(C)=O)cc2)cc1` (relative stereo) [5y, (1R*,2R*)-2-(Pyridin-2-yl)cyclopropanecarboxylic Acid [(2S,3S)-2-Amino-3-methylpentyl]-(4′-acetamidobiphenyl-4-yl)amide], the “agonist activity in words” value is recorded as “least activity in the series”.

On to `CC[C@H](C)[C@H](N)CN(C(=O)[C@@H]1C[C@H]1c1ccccn1)c1ccc(-c2ccc(N)cc2)cc1` (relative stereo) [5w, (1R*,2R*)-2-(Pyridin-2-yl)cyclopropanecarboxylic Acid [(2S,3S)-2-Amino-3-methylpentyl]-(4′-aminobiphenyl-4-yl)amide], for which the “agonist activity in words” value was “significant decrease in activity”. For the same compound, where the note is “EC50”, the midpoint of the response, the EC50, lay at 1120 nM.

Where the note is “EC50”, `CC[C@H](C)[C@H](N)CN(C(=O)[C@@H]1C[C@H]1c1ccccn1)c1ccc(-c2ccc(N(C)C)cc2)cc1` (relative stereo) [5x, (1R*,2R*)-2-(Pyridin-2-yl)cyclopropanecarboxylic Acid [(2S,3S)-2-Amino-3-methylpentyl]-[4′-(dimethylamino)biphenyl-4-yl]amide] showed an EC50 of 294 nM.

As for `CCOc1ccc(-c2ccc(N(C[C@@H](N)[C@@H](C)CC)C(=O)[C@@H]3C[C@H]3c3ccccn3)cc2)cc1` (relative stereo) [5l, (1R*,2R*)-2-(Pyridin-2-yl)cyclopropanecarboxylic Acid [(2S,3S)-2-Amino-3-methylpentyl]-(4′-ethoxybiphenyl-4-yl)amide], the EC50 is, setting by setting: (EC50) 82 nM; (EC50 (nM)) 82 nM.

`CC[C@H](C)[C@H](N)CN(C(=O)[C@@H]1C[C@H]1c1ccccn1)c1ccc(-c2ccc(Cl)cc2)cc1` (relative stereo) [5q, (1R*,2R*)-2-(Pyridin-2-yl)cyclopropanecarboxylic Acid [(2S,3S)-2-Amino-3-methylpentyl]-(4′-chlorobiphenyl-4-yl)amide]: a half-maximal effect (EC50) (EC50) was put at 213 nM.

As for `CCCCCCc1ccc(-c2ccc(N(C[C@@H](N)[C@@H](C)CC)C(=O)[C@@H]3C[C@H]3c3ccccn3)cc2)cc1` (relative stereo) [5g, (1R*,2R*)-2-(Pyridin-2-yl)cyclopropanecarboxylic Acid [(2S,3S)-2-Amino-3-methylpentyl]-(4′-hexylbiphenyl-4-yl)amide], a half-maximal effect (EC50) (EC50) was put at 136 nM.

“(1R*,2R*)-2-(Pyridin-2-yl)cyclopropanecarboxylic Acid [(2S,3S)-2-Amino-3-methylpentyl]-(4′-phenethylphenyl-4-yl)amide [4g]”: the “agonist activity in words” value is “deteriorated activity”.

As to `CC[C@H](C)[C@H](N)CN(C(=O)[C@@H]1C[C@H]1c1ccccn1)c1ccc(-c2ccc(OC)c(OC)c2)cc1` (relative stereo) [5n, (1R*,2R*)-2-(Pyridin-2-yl)cyclopropanecarboxylic Acid [(2S,3S)-2-Amino-3-methylpentyl]-(3′,4′-dimethoxybiphenyl-4-yl)amide], the “fold loss of activity” value is given as “approximately 10 fold”. The same compound had an EC50 (EC50) of 917 nM.

With `CC[C@H](C)[C@H](N)CN(C(=O)[C@@H]1C[C@H]1c1ccccn1)c1ccc(-c2ccc(OC(F)(F)F)cc2)cc1` (relative stereo) [5k, (1R*,2R*)-2-(Pyridin-2-yl)cyclopropanecarboxylic Acid [(2S,3S)-2-Amino-3-methylpentyl]-(4′-trifluoromethoxybiphenyl-4-yl)amide], the EC50 (EC50) was 139 nM.

Consider `CC[C@H](C)[C@H](N)CN(C(=O)[C@@H]1C[C@H]1c1ccccn1)c1ccc(-c2ccc(C(=O)N(C)C)cc2)cc1` (relative stereo) [5aa, (1R*,2R*)-2-(Pyridin-2-yl)cyclopropanecarboxylic Acid [(2S,3S)-2-Amino-3-methylpentyl]-[4′-(dimethylcarbamoyl)biphenyl-4-yl]-amide], for which the “agonist activity in words” value was “least activity in the series”. Also, the EC50 (EC50) is 3320 nM.

As for `CC[C@H](C)[C@H](N)CN(C(=O)[C@@H]1C[C@H]1c1ccccn1)c1ccc(-c2ccc([N+](=O)[O-])cc2)cc1` (relative stereo) [5s, (1R*,2R*)-2-(Pyridin-2-yl)cyclopropanecarboxylic Acid [(2S,3S)-2-Amino-3-methylpentyl]-(4′-nitrobiphenyl-4-yl)amide], the EC50 (EC50) was 274 nM.

Consider `CCOC(=O)c1ccc(-c2ccc(N(C[C@@H](N)[C@@H](C)CC)C(=O)[C@@H]3C[C@H]3c3ccccn3)cc2)cc1` (relative stereo) [5u, (1R*,2R*)-2-(Pyridin-2-yl)cyclopropanecarboxylic Acid [(2S,3S)-2-Amino-3-methylpentyl]-(4′-ethoxycarbonylbiphenyl-4-yl)amide], for which the EC50 (EC50) is 257 nM.

For the compound “(1R*,2R*)-2-(Pyridin-2-yl)cyclopropanecarboxylic Acid [(2S,3S)-2-Amino-3-methylpentyl]-(4′-phenoxyphenyl-4-yl)amide [4e]”, the “agonist activity in words” value is “deteriorated activity”.
